Reference: patent US20200405659A1, “COMPOSITION CONTAINING 2,3-BUTANEDIOL AS ACTIVE INGREDIENT” (GS CALTEX CORPORATION, priority 2018, published 2020)

Experiments:
collagenase (MMP-1) = assay: Collagenase (MMP-1) content in CCD-986SK cells (Human MMP-1 ELISA kit); format: cell-based; conditions: for Collagenase (MMP-1)(pg/mL) / MMP-1 content relative to untreated control (%): 48 hours; for MMP-1 content relative to untreated control (%): specimen-free = 100.00, decreased percent means collagenase restrained; for restraining effects of collagenase: compared with the Comparative Examples using 1,3-butanediol or 1,3-propanediol
Description: The anti-wrinkle effects of 2,3-butanediol were evaluated as the restraining effects of the decomposition of interstitial collagen, etc., by decreasing skin collagenase (for example, MMP-1).
To evaluate the anti-wrinkle effects of 2,3-butanediol, serum-free mediums composed of 99 mL of Dulbecco's modified eagle medium (Gibco) and 1 mL of Penicillin-streptomycin (Gibco), diluted with 2R,3S-butanediol, 2R,3R-butanediol, 1,3-butanediol and 1,3-propanediol in the concentrations shown in Table 3 below, were prepared.
In addition, cells CCD-986SK (ACTT CRL-6323™) were seeded in well plates by 1 mL with 5×10^4, and cultivated at 37° C. in a 5% CO2 cultivator for 24 hours. The cultivated cells were replaced with the mediums of the Examples and Comparative Examples and cultivated at 37° C. in a 5% CO2 cultivator for 48 hours.
A cell dissolution material was recovered, the protein content was measured using BSA protein assay reagent kit (Thermo scientific PIERCE, USA), the collagenase (MMP-1) content was measured suing Human MMP-1 ELISA kit (Sigma), and the results are shown in Table 4 below.
That is, the decreased percent calculated means that collagenase is effectively restrained.

[1] = DPPH free radical elimination activity (anti-oxidation ratio); conditions: for change of anti-oxidation ratio with the increase of the concentration: from 0.1 wt % to 1 wt %
Description: To evaluate the anti-oxidative effects of 2,3-butanediol, the elimination activity of free radicals was measured using a 2,2-diphenyl-1-picrylhydrazyl (DPPH) analysis method. Particularly, an anti-oxidation ratio was calculated by Equation 2 below.
Anti-oxidation ratio (%)=[[(absorbance of specimen treated group−absorbance of specimen untreated group)/(absorbance of negative control group−absorbance of specimen untreated group)]×100 [Equation 2]
i) specimen untreated group: group allowing reaction of ultrapure water and methanol
ii) specimen treated group: group allowing reaction of specimen by each concentration and DPPH
iii) negative control group: group allowing reaction of ultrapure water and DPPH
According to the concentration shown in Table 2 below, diols were diluted with a methanol solvent to prepare specimens, and each specimen was reacted with DPPH, and absorbance was measured, and the anti-oxidation ratios calculated are shown in Table 2 below.

C[C@@H](O)[C@@H](C)O [2R,3R-butanediol]
Collagenase (MMP-1)(pg/mL) (collagenase (MMP-1); 0.05 wt % in serum-free medium): 390.9 pg/mL
MMP-1 content relative to untreated control (%) (collagenase (MMP-1); 0.05 wt %): 56.16%
Collagenase (MMP-1)(pg/mL) (collagenase (MMP-1); 0.10 wt % in serum-free medium): 443.0 pg/mL
MMP-1 content relative to untreated control (%) (collagenase (MMP-1); 0.10 wt %): 63.45%
Collagenase (MMP-1)(pg/mL) (collagenase (MMP-1); 0.50 wt % in serum-free medium): 327.7 pg/mL
MMP-1 content relative to untreated control (%) (collagenase (MMP-1); 0.50 wt %): 50.73%
Collagenase (MMP-1)(pg/mL) (collagenase (MMP-1); 1.00 wt % in serum-free medium): 159.1 pg/mL
MMP-1 content relative to untreated control (%) (collagenase (MMP-1); 1.00 wt %): 27.29%
restraining effects of collagenase (collagenase (MMP-1)): markedly increased
production of collagenase (collagenase (MMP-1); concentration of 1 wt %): markedly reduced

OCCCO [1,3-propanediol]
Anti-oxidation ratio (%) ([1]; 0.1 wt % in methanol): 5.34%
Anti-oxidation ratio (%) ([1]; 0.5 wt % in methanol): 2.17%
Anti-oxidation ratio (%) ([1]; 1.0 wt % in methanol): −1.23%
change of anti-oxidation ratio with the increase of the concentration [1]: rather decreased
Collagenase (MMP-1)(pg/mL) (collagenase (MMP-1); 0.50 wt % in serum-free medium): 602.9 pg/mL
MMP-1 content relative to untreated control (%) (collagenase (MMP-1); 0.50 wt %): 94.23%

C[C@H](O)[C@@H](C)O [2R,3S-butanediol]
Anti-oxidation ratio (%) ([1]; 0.1 wt % in methanol): 2.23%
Anti-oxidation ratio (%) ([1]; 0.5 wt % in methanol): 3.95%
change of anti-oxidation ratio with the increase of the concentration [1]: increased
Collagenase (MMP-1)(pg/mL) (collagenase (MMP-1); 0.05 wt % in serum-free medium): 370.2 pg/mL
MMP-1 content relative to untreated control (%) (collagenase (MMP-1); 0.05 wt %): 60.78%
Collagenase (MMP-1)(pg/mL) (collagenase (MMP-1); 0.10 wt % in serum-free medium): 364.7 pg/mL
MMP-1 content relative to untreated control (%) (collagenase (MMP-1); 0.10 wt %): 59.80%
Collagenase (MMP-1)(pg/mL) (collagenase (MMP-1); 0.50 wt % in serum-free medium): 324.2 pg/mL
MMP-1 content relative to untreated control (%) (collagenase (MMP-1); 0.50 wt %): 56.69%
Collagenase (MMP-1)(pg/mL) (collagenase (MMP-1); 1.00 wt % in serum-free medium): 321.4 pg/mL
MMP-1 content relative to untreated control (%) (collagenase (MMP-1); 1.00 wt %): 62.63%
restraining effects of collagenase (collagenase (MMP-1)): markedly increased

CC(O)CCO (stereo not shown) [1,3-butanediol]
Anti-oxidation ratio (%) ([1]; 0.1 wt % in methanol): 2.89%
Anti-oxidation ratio (%) ([1]; 0.5 wt % in methanol): 1.46%
Anti-oxidation ratio (%) ([1]; 1.0 wt % in methanol): 1.00%
change of anti-oxidation ratio with the increase of the concentration [1]: rather decreased
Collagenase (MMP-1)(pg/mL) (collagenase (MMP-1); 0.50 wt % in serum-free medium): 569.1 pg/mL
MMP-1 content relative to untreated control (%) (collagenase (MMP-1); 0.50 wt %): 90.82%
